The source of these data is PMC10253401, “BS148 Reduces the Aggressiveness of Metastatic Melanoma via Sigma-2 Receptor Targeting” (International Journal of Molecular Sciences, 2023).

This assay deals with T1, sigma-2 receptor (S2R) (Homo sapiens, UniProt Q5BJF2).
T1 construct: gene TMEM97
The assay is described as follows: radioligand displacement ([3H]-ditolylguanidine, […], with […] (+)pentazocine to mask S1R). It counts as binding.

T1 sequence (Q5BJF2 whole entry): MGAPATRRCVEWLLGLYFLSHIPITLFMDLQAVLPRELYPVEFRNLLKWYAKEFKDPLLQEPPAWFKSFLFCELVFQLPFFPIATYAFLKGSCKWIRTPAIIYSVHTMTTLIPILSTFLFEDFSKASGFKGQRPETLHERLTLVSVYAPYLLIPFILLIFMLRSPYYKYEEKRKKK

With `O=C(CCCCCNc1ccc([N+](=O)[O-])c2nonc12)Oc1ccc(CC2CCN(CC3CSC4(CCCCC4)S3)CC2)cc1` (stereo not shown) [BS148-fluo, 4-((1-((1,4-dithiaspiro[4.5]decane-2-yl)methyl)piperidin-4-yl)methyl)phenyl-6-((7-nitrobenzo[c][1,2,5]oxadiazol-4-yl)amino)hexanoate], the “pKi S2R ^a ± SD” value is on record as 7.00 ± 0.11 pKi.
